The values that follow come from PMC11849186 (BMC Biology, 2025).

Test [1] has as its target T1, Pheromone binding protein 5 (Pbp5) (Bactrocera dorsalis, UniProt A0A6I9V7R6).
T1 sequence (A0A6I9V7R6 21-147): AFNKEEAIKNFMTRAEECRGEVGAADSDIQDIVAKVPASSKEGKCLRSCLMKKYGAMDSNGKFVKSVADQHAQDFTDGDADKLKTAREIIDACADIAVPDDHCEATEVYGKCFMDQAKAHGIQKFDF
The test is described as follows: competitive fluorescence displacement of 1-NPN.

The target in test [2] is T2, Pheromone binding protein 5 (Pbp5) mutant (Bactrocera dorsalis, UniProt A0A6I9V7R6, F147A/F31A/F95A/I28A).
T2 sequence (A0A6I9V7R6 21-147 I28A/F31A/F95A/F147A): T1 sequence (A0A6I9V7R6 21-147)
The test is described as follows: direct fluorescence binding assay.

For test [3], the target named is T1, Pheromone binding protein 5 (Pbp5). The test is described as follows: direct fluorescence binding assay.

Broadly, the Ki is the dissociation constant of the complex between target and ligand, obtained from inhibition or displacement. In general, Kd refers to the free concentration of one partner at which half of the binding sites on the other are occupied at equilibrium, for simple one-to-one binding. Low values mean tighter binding, high ones weaker binding.

For `Cc1nc(C)c(C)nc1C` [TTMP, tetramethylpyrazine], the Ki in test [1] was determined as 0.21 µM.

`Cc1cnc(C)c(C)n1` [TMP, trimethylpyrazine] gave an inhibition constant Ki in test [1] of 0.224 µM.

Consider `c1ccc(Nc2cccc3ccccc23)cc1` [1-NPN, N-phenyl-1-naphthylamine], for which the Kd turned out to be 33.9 µM in test [2] and 10.6 µM in test [3].
